Experimental data published in article PMC12040169 (PLOS Biology, 2025).

Test: in vitro
Settings: human, hela cells, % viability

Structure (SMILES) | viability at 28.5 h, 10 µM
Nc1cccc(-c2nccnc2NCCc2ccccn2)c1 [CBK037512] | 102%
Cc1ccc(Nc2nc(N)nc(CN3CCCC3)n2)cc1 [CBK270163] | 97.7%
C=CCN1CCC(C(=O)NC(=O)NCC2COc3ccccc3O2)CC1 (stereo not shown) [CBK051099] | 84.2%
O=C(O)COc1ccc(C=C2C(=O)c3ccccc3C2=O)cc1Cl [CBK263857] | 87.3%
COCC(=O)Nc1ccc(Cl)c(NC(=O)NCCN2CCCC2=O)c1 [CBK306663] | 87.9%
CCC(NC(=O)Nc1cc(N2CCOCC2)ccc1Cl)c1nc(C)no1 (stereo not shown) [CBK306526] | 87.9%
NC(=O)CSc1ccccc1 [CBK010649] | 91.2%
c1cncc(-c2nc(NCCN3CCOCC3)c3ccccc3n2)c1 [CBK264566C] | 91%
COCCNC(=O)c1cc(-c2ccccc2C)nc2c1cnn2C(C)C [CBK305392] | 111%
Cc1ncc(CN(C)C(=O)Nc2cccc(C(=O)N3CCOCC3)c2)s1 [CBK305984] | 92.2%
COc1ccc(S(=O)(=O)NCCCN2CCOCC2)c(Cl)c1Cl [CBK269792] | 95.3%
O=C(O)c1ccccc1C(=O)N1CCN(c2ccc([N+](=O)[O-])cc2)CC1 [CBK287181] | 87.7%
Cn1cc(-c2nc(C3CCCCCN3C(=O)c3cccnc3)no2)cn1 (stereo not shown) [CBK305387] | 87.9%
CNC(=O)c1sc2ccccc2c1C1CCN(S(=O)(=O)c2ccc(C)c(C)c2)C1 (stereo not shown) [CBK285877] | 85.8%
Cc1nnc(SCc2cc(=O)nc(NC(=N)Nc3cccc(Cl)c3)[nH]2)s1 [CBK266318] | 75.5%
COc1ccc([C@H]2C3CCCCC3[C@@H]2NC(=O)C2CCCO2)cc1 (stereo partly shown) [CBK282990] | 108%
Cc1cc(-c2cc(C)n[nH]2)[nH]n1 [CBK262079] | 107%
COc1ccc(C2C(C(=O)c3ccc(Cl)cc3)=C(O)C(=O)N2CCN(C)C)cc1OC (stereo not shown) [CBK264660] | 103%
O=C(O)c1ccc(-n2nnnc2SCc2ccccc2)cc1 [CBK287161] | 93.6%
Cc1c(C(=O)O)sc(S(=O)(=O)N2CCN(C(=O)c3ccc(Cl)cc3)CC2)c1C(=O)O [CBK297123] | 96.9%
CCOC(=O)c1sc2nc(C(C)N3CCCCC3)[nH]c(=O)c2c1C (stereo not shown) [CBK306078] | 111%
COc1ccc([C@@]23CC[C@@H](NC(=O)Nc4ccon4)C[C@@H]2N(C)CC3)cc1OC [CBK051069T] | 97%

Structure (SMILES) | viability at 28.5 h, 10 µM
COCC1(C(=O)N2CC(=O)N(c3ccc(C)cc3)CC2C)CCC1 (stereo not shown) [CBK307606] | 89.1%
O=C(O)CSc1nc(O)c2c(-c3ccccc3)csc2n1 [CBK268067] | 107%
Cc1nc(CNC(=O)NC2CCCN(c3ncccn3)C2)cs1 (stereo not shown) [CBK305640] | 95.3%
COCCNS(=O)(=O)c1cc(OCC(N)=O)c(C)cc1Cl [CBK266461] | 99.3%
CC(O)(CC(=O)O)CC(=O)OCCc1ccc2c(c1)CCC2 (stereo not shown) [CBK017766] | 95.2%
CNC(=O)c1sc2ccccc2c1C1CCN(Cc2nc3ccccc3n2C(C)C)C1 (stereo not shown) [CBK285929] | 98.4%
COc1cncc(-c2cnc(N)c(N[C@@H](CO)C(C)C)n2)c1 [CBK063734] | 106%
O=C(CN(c1ccccc1)S(=O)(=O)c1ccccc1[N+](=O)[O-])Nc1ccc(I)cc1 [CBK263755] | 58.3%
CCC(C(=O)NCCCN1CCOCC1)c1ccccc1 (stereo not shown) [CBK265103] | 116%
CCCC(C)N(C)C(=O)CCc1c(C)nc(-c2cccnc2)[nH]c1=O (stereo not shown) [CBK304965] | 106%
Cc1nc(NC(=O)C2Cc3ccccc3S2)sc1-c1n[nH]c(=S)n1C (stereo not shown) [CBK295337] | 98%
CC(=O)c1ccc(-c2cnc(N)c(NC3CCCCC3)n2)s1 [CBK063596] | 106%
O=C(O)/C(=C\c1ccc(Cl)cc1)NC(=O)c1ccccc1I [CBK265701] | 90.1%
CC(C(=O)Nc1cccc(N2CCNCC2)c1)c1ccccc1 (stereo not shown) [CBK004770T] | 95.6%
Cc1cc(/C=N\NC(=O)c2cc3ccccc3cc2O)c(C)n1-c1ccccc1 [CBK261801] | 84.6%
O=C(N/N=C/c1ccc([N+](=O)[O-])cc1)c1ccccc1Cl [CBK261775] | 88.7%
CCOC(=O)c1[nH]c2ccccc2c1NC(=O)COc1ccc(Cl)cc1Cl [CBK160134] | 102%
Cc1ccc(Cl)cc1NC(=O)c1cc([N+](=O)[O-])ccc1NCCN1C(=O)c2ccccc2C1=O [CBK268501] | 99.5%
CC1CCN(Cc2csc(NC(=O)CCn3c(-c4cccs4)n[nH]c3=S)n2)CC1 [CBK297892] | 92.2%
O=C(c1csc(-c2ccncc2)n1)N1CCN(c2ccccc2)CC1 [CBK288590] | 110%
O=C(NC[C@H]1O[C@@H](CC(=O)N2CCc3ccccc32)[C@H](O)[C@@H]1O)C1CC1 [CBK288915] | 105%
O=C(OCCN1C[C@H]2CCCCC2C1c1ccccc1)c1ccc(Br)cc1 (stereo partly shown) [CBK016175C] | 104%

Structure (SMILES) | viability at 28.5 h, 10 µM
COc1ncc(-c2cncc(N[C@H](C)c3ccccc3)n2)c(OC)n1 [CBK065267] | 92.4%
CCCN(C)Cc1ccc(-c2cn(CC(=O)NCc3ccc(C(F)(F)F)cc3)nn2)cc1 [CBK164719] | 92.9%
Cc1ccc(/C(N)=N/OC(=O)COc2cccc3ccccc23)cc1 [CBK263009] | 98.5%
Cc1ccc2c(c1)C1(CC(=O)N(C)C1=O)C(=O)N2CCCOc1ccccc1 (stereo not shown) [CBK075496] | 98.2%
Cc1cc(Cc2cnc(NC(=O)c3ccncc3)s2)ccc1Br [CBK298304] | 106%
O=C(O)CN(CC(=O)Nc1ccc(Cl)cc1)Cc1ccccc1 [CBK286585] | 85.5%
Cc1nc[nH]c1CN(CCCn1ccnc1)CC1CC=CCC1 (stereo not shown) [CBK283218] | 83%
CCCNc1nc(Cl)nc(NCc2cccnc2)n1 [CBK261995] | 89%
O=C(Nc1ccc(S(=O)(=O)Nc2ncccn2)cc1)c1cc([N+](=O)[O-])ccc1Cl [CBK263717] | 89.9%
O=C(CCCOc1ccc(Cl)cc1Cl)NO [CBK288436] | 81.7%
COc1ccc(NC2=CC(=O)CC(c3ccc(C)cc3)C2)c(OC)c1 (stereo not shown) [CBK264845] | 111%
CC(C)(C)OC(=O)N1CCC(COc2ncc(-c3ccc(C(=O)N4CCC[C@@H]4CO)nc3)cn2)CC1 [CBK170022] | 90.9%
COCCn1nnnc1C(c1cc2cc(C)ccc2[nH]c1=O)N1CCN(C(=O)c2ccco2)CC1 (stereo not shown) [CBK111562] | 80.3%
Cc1nc(Nc2ccc(Cl)cc2)nc(N2CCN(C)CC2)n1 [CBK023855] | 95.4%
Cc1c(O)ccc2c(COC(=O)C3(c4ccccc4)CCCC3)cc(=O)oc12 [CBK295622] | 98.8%
CC(C)n1ccnc1CN1CCn2nc(CNc3cnccn3)cc2C1 [CBK306902] | 98.7%
O=C(O)CC1C(=O)NCCN1Cc1ccc(F)c(F)c1 (stereo not shown) [CBK270008] | 85.3%
O=C(O)c1ccc2c(c1)C(=O)N(C1=NCCS1)C2=O [CBK021809] | 89.6%
O=C(CN1CCOCC1)N1CCC(F)CC1 [CBK200383] | 83.5%
O=C(O)CCCC(=O)NC12CC3CC(CC(C3)C1)C2 [CBK286958] | 97.4%
CCN1C(=O)C(F)(CC)C(=O)c2ccccc21 (stereo not shown) [CBK098854] | 107%
CS(=O)(=O)N[C@H]1CO[C@H]2[C@@H]1OC[C@@H]2Nc1nccc(-c2cccs2)n1 [CBK289519] | 92%

Structure (SMILES) | viability at 28.5 h, 10 µM
O=C1NC2(CCC2)C(=O)N1Cc1coc(-c2cccs2)n1 [CBK305209] | 95.9%
O=C(CCc1ccncc1)N1CCC(c2cc3ncccc3[nH]2)CC1 [CBK284460] | 84.3%
CCCS(=O)(=O)NC1CC(C)(C)Cc2c1cnn2-c1ccc(C)cc1 (stereo not shown) [CBK307531] | 86.5%
COC(=O)c1c(NC(=O)Cn2nc([N+](=O)[O-])c(Cl)c2C)sc2c1CCCC2 [CBK263047] | 83.9%
COc1ccc(NC(=O)c2ccc(-c3ccc(Nc4ccc5c(c4)OCCO5)nc3)cc2)cc1 [CBK036815] | 88.7%
COc1ncc(-c2cncc(NCCc3ccccn3)n2)c(OC)n1 [CBK065287] | 97.7%
O=C1N(Cc2ccc(Br)cc2)CCc2cncn21 [CBK021187] | 79.7%
Cc1ccc(S(=O)(=O)CC(=O)N2CCCC3(CCN(Cc4ccccc4)C3)C2)cc1 (stereo not shown) [CBK137098T] | 90.7%
c1coc(-c2ccc(Nc3ccc4c(c3)OCCO4)nc2)c1 [CBK037765] | 96.9%
CC(Oc1ccc(Cl)cc1Cl)C(=O)Nc1ccc2oc(-c3ccncc3)nc2c1 (stereo not shown) [CBK266768] | 109%
CCN1CCN(Cc2c(C3CCCC3)[nH]c3ncccc23)CC1 [CBK285386] | 97%
O=C(NC(c1ccccc1)c1ccco1)C1CCN(CCc2c[nH]c3ccccc23)CC1 (stereo not shown) [CBK148290] | 100%
Cc1nn(C)cc1C(=O)N1CCC(c2cc3c(C)cccc3cn2)CC1 [CBK282231] | 103%
Cn1ncnc1CCNS(=O)(=O)c1cccc(C(=O)N2CCCCC2)c1 [CBK306731] | 101%
OC1(c2ccc(F)cc2)CC2CCC(C1)N2Cc1ccccn1 (stereo not shown) [CBK283490] | 108%
O=S(=O)(N1CCCCCC1)N1CCN(S(=O)(=O)N2CCCCC2)CC1 [CBK269001] | 114%
O=c1[nH]nc2c(S(=O)(=O)N3CCOCC3)cccn12 [CBK288469] | 94.1%
c1ccc(CCN2CCC(Oc3nccnc3OCc3cccnc3)CC2)nc1 [CBK083180] | 103%
O=C1COc2ccccc2CCCC[C@@H]2CN(C(=O)CN3C(=O)CNC3=O)CC[C@H]2N1 [CBK292047] | 92.7%
Cc1cc(C)c(C(=O)N2CCN(CCNC(=O)C3CCCC3)CC2)[nH]1 [CBK305315] | 89.5%
Cc1c(C)n(Cc2ccco2)c2ncnc(N3CCC(C(=O)O)CC3)c12 [CBK307599] | 99.1%

Same assay, conditions: human, hela cells, % viability, bulk resorufin, single well

Structure (SMILES) | viability at 28.5 h, 10 µM
COc1cc(Br)cc(CN2CCN(Cc3ccccc3)CC2)c1O [CBK261880] | 108%
